Here are results for two compounds from patent US10570131B2, “Heterocyclic compounds and their use in preventing or treating bacterial infections” (MUTABILIS, priority 2015, dated 2020).

SMILES strings stand for the structures.

In experiment [1] the test system is P. aeruginosa CIP105250. As to the kind of experiment: microbe, parasite or virus in culture. The format is cell-based. To be noted: Pseudomonas aeruginosa, CIP105250, read-out: MIC compounds of the invention alone. The procedure:
(§1) Compounds of the present invention were assessed against genotyped bacterial strains alone or in combination with the β-lactam ceftazidime (CAZ). […] Briefly, compounds alone according to the invention were prepared in DMSO and spotted (2 μL each) on sterile polystyrene plates (Corning, 3788). […] Log phase bacterial suspensions were adjusted to a final density of 5×10^5 cfu/mL in cation-adjusted Mueller-Hinton broth (Becton-Dickinson) and added to each well (98 μL). Microplates were incubated for 16-20 h at 35° C. in ambient air. The MIC of the compounds was defined as the lowest concentration of said compounds that prevented bacterial growth as read by visual inspection.

Experiment [2] relates to K. pneumoniae 6299. The experiment can be described thus: microbe, parasite or virus in culture. The class given is cell-based. To be noted: Klebsiella pneumoniae, 6299, read-out: MIC compounds of the invention alone. How it is done: as §1
Experiment [3] has as its system K. pneumoniae BAA-1898. As to the kind of experiment: microbe, parasite or virus in culture. The format is cell-based. To be noted: Klebsiella pneumoniae, BAA1898, read-out: MIC compounds of the invention alone. The procedure:
as §1

The next experiment relates to E. coli 131119. The experiment can be described thus: microbe, parasite or virus in culture. The format is cell-based. Particulars: Escherichia coli, 131119, read-out: MIC compounds of the invention alone. The procedure: as §1
The test system of experiment [4] is E. coli 190317. The experiment can be described thus: MIC of ceftazidime alone and in combination with compounds (synergy), broth microdilution. The class given is cell-based. Particulars: MIC of ceftazidime with compound fixed at 4 μg/mL; strain 190317 (TEM-1, SHV-12, CTX-M-15, OXA-1).
In another experiment the test system is E. coli RGN238. As to the kind of experiment: MIC of compounds alone, broth microdilution. To be noted: Escherichia coli, RGN238, read-out: MIC compounds of the invention alone. The class given is cell-based. How it is done:
as §1
In general terms: Broth dilution looks for growth in wells or tubes with falling amounts of substance.

Experiment [5] deals with E. coli 190317. The experiment can be described thus: MIC of compounds alone, broth microdilution. The format is cell-based. To be noted: Escherichia coli; strain 190317 (TEM-1, SHV-12, CTX-M-15, OXA-1); read-out: MIC compounds of the invention alone. How it is done: as §1
The test system of experiment [6] is P. aeruginosa CIP107051. As to the kind of experiment: MIC of compounds alone, broth microdilution. The class given is cell-based. Particulars: Pseudomonas aeruginosa; strain CIP107051 (TEM-24); read-out: MIC compounds of the invention alone. The procedure: as §1
In experiment [7] the test system is E. cloacae P99. The experiment can be described thus: MIC of compounds alone, broth microdilution. The class given is cell-based. Particulars: Enterobacter cloacae; strain P99 (AmpC); read-out: MIC compounds of the invention alone. The procedure:
as §1

The test system of experiment [8] is E. cloacae P99. The experiment can be described thus: MIC of ceftazidime alone and in combination with compounds (synergy), broth microdilution. The format is cell-based. To be noted: MIC of ceftazidime with compound fixed at 4 μg/mL; strain P99 (AmpC).
In the next experiment the target is T1, SHV-1 (Klebsiella pneumoniae, UniProt P0AD64).
T1 construct: made in house; host or cells: E. coli expression vector
The experiment can be described thus: β-lactamase inhibitory activity, IC50 (nitrocefin hydrolysis). The format is biochemical. The procedure:
(§2) Method 1: β-lactamase Inhibitory Activity, Determination of IC50 (Table 1)
(§3) Enzyme activity was monitored by spectrophotometric measurement of nitrocefin (NCF—TOKU-E, N005) hydrolysis at 485 nm, at room temperature and in assay buffer A: 100 mM Phosphate pH7, 2% glycerol and 0.1 mg/mL Bovine serum albumin (Sigma, B4287). Enzymes were cloned in E. coli expression vector, expressed and purified in house using classical procedures. To a transparent polystyrene plate (Corning, 3628) were added in each well 5 μL DMSO or inhibitor dilutions in DMSO and 80 μL enzyme in buffer A. Plates were immediately read at 485 nm in a microplate spectrophotometer (BioTek, PowerWave HT) to enable background subtraction. After 30 min of pre-incubation at room temperature, 15 μL of NCF (200 μM final) were finally added in each well. Final enzyme concentrations were 0.1 nM (TEM-1), 0.075 nM (SHV-1), 0.4 nM (CTX-M-15), 1 nM (KPC-2), 0.2 nM (P99 AmpC), 0.2 nM (CMY-37), 0.4 nM (AmpC P. aeruginosa), 0.2 nM (OXA-1), 1.2 nM (OXA-11), 0.4 nM (OXA-15) and 0.3 nM (OXA-48). After 20 min incubation at room temperature, plates were once again read at 485 nm. Enzyme activity was obtained by subtracting the final signal by the background, and was converted to enzyme inhibition using non inhibited wells. IC50 curves were fitted to a classical Langmuir equilibrium model with Hill slope using XLFIT (IDBS).

The next experiment has as its target T2, CTX-M-15 (Escherichia coli, UniProt Q9EXV5).
T2 construct: made in house; host or cells: E. coli expression vector
The experiment is described as above. The format is biochemical. How it is done:
as §2, §3

The target of a further experiment is T3, TEM-1 (Escherichia coli, UniProt P62593).
T3 construct: made in house; host or cells: E. coli expression vector
The description is as above. The format is biochemical. To be noted: class (A); 30 min pre-incubation; NCF 200 μM. The procedure: as §2, §3

The target in the next experiment is T4, OXA-11 (Pseudomonas aeruginosa, UniProt Q06778).
T4 construct: made in house; host or cells: E. coli expression vector
Described as above. The class given is biochemical. How it is done: as §2, §3

The target of the next experiment is T5, OXA-1 (Escherichia coli, UniProt P13661).
T5 construct: made in house; host or cells: E. coli expression vector
The description is as above. The format is biochemical. How it is done: as §2, §3

The next experiment concerns the target T6, OXA-48 (Klebsiella pneumoniae, UniProt Q6XEC0).
T6 construct: made in house; host or cells: E. coli expression vector
Described as above. The format is biochemical. How it is done: as §2, §3

The next experiment has as its target T7, KPC-2 (Klebsiella pneumoniae, UniProt Q9F663).
T7 construct: made in house; host or cells: E. coli expression vector
The experiment is described as above. The class given is biochemical. How it is done:
as §2, §3

For another experiment, the target named is T8, AmpC (PAE) (Pseudomonas aeruginosa, UniProt P24735).
T8 construct: made in house; host or cells: E. coli expression vector
As to the kind of experiment: biochemical. Also on record: species or system P. aeruginosa. The procedure: as §2, §3

Another experiment deals with T9, OXA-15 (Pseudomonas aeruginosa, UniProt Q51574).
T9 construct: made in house; host or cells: E. coli expression vector
The experiment can be described thus: biochemical. How it is done:
as §2, §3

The target in another experiment is T10, AmpC (P99) (Enterobacter cloacae, UniProt P05364).
T10 construct: made in house; host or cells: E. coli expression vector
As to the kind of experiment: biochemical. The procedure:
as §2, §3

The subject of experiment [9] is P. aeruginosa CIP105250. The experiment can be described thus: MIC of ceftazidime alone and in combination with compounds (synergy), broth microdilution. The class given is cell-based. Particulars: MIC of ceftazidime with compound fixed at 4 μg/mL; strain CIP105250 (OXA-15). The procedure: as §1
Experiment [10] has as its system K. pneumoniae 6299. The description is as above. To be noted: MIC of ceftazidime with compound fixed at 4 μg/mL; strain 6299 (TEM-1, SHV-11, OXA-163). The format is cell-based. The procedure:
as §1

Experiment [11] deals with P. aeruginosa CIP107051. Described as above. Particulars: MIC of ceftazidime with compound fixed at 4 μg/mL; strain CIP107051 (TEM-24). The class given is cell-based. How it is done: as §1
Experiment [12] has as its system K. pneumoniae BAA-1898. The experiment is described as above. To be noted: MIC of ceftazidime with compound fixed at 4 μg/mL; strain BAA-1898 (TEM-1, SHV-11, SHV-12, KPC-2). The format is cell-based. The procedure:
as §1

T4 sequence (Q06778 21-266): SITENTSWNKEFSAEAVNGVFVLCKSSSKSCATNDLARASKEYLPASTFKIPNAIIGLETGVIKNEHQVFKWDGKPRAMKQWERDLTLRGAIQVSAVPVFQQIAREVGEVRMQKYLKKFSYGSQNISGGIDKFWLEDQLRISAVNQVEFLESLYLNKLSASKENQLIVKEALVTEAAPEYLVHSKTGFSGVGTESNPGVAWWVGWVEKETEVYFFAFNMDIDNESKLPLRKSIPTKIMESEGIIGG
T2 sequence (Q9EXV5 entry or part of it): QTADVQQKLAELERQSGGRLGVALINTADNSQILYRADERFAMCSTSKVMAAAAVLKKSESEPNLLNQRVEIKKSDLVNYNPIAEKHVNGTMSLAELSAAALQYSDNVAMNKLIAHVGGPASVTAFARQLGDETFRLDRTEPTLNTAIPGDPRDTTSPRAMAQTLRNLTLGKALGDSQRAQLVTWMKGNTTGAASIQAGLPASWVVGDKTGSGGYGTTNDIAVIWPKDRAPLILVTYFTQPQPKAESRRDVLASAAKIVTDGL
T7 sequence (Q9F663 25-293 limits assumed): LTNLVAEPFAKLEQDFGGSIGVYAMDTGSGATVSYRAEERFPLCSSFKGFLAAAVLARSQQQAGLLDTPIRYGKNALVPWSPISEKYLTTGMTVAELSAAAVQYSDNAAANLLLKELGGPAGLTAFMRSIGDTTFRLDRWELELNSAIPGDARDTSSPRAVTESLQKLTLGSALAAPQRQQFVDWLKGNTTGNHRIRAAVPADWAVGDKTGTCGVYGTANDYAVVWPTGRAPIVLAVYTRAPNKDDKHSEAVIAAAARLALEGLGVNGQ
T6 sequence (Q6XEC0 23-265 limits assumed): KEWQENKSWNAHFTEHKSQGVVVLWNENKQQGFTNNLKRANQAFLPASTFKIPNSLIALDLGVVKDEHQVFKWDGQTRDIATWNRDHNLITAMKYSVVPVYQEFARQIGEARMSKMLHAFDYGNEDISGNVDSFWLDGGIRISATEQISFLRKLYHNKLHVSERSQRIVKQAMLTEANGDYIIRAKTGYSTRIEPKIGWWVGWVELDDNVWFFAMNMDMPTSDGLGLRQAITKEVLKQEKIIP
T10 sequence (P05364 21-381): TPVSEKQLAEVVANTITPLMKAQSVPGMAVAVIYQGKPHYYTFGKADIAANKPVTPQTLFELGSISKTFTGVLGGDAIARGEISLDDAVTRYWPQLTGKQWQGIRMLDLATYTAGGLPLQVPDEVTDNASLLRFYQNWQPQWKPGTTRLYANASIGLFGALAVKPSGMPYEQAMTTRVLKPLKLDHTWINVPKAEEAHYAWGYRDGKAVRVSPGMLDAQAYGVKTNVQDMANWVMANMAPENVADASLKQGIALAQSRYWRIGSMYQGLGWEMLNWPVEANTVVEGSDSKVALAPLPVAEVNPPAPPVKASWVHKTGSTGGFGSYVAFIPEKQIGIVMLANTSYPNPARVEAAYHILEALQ
T1 sequence (P0AD64 22-286): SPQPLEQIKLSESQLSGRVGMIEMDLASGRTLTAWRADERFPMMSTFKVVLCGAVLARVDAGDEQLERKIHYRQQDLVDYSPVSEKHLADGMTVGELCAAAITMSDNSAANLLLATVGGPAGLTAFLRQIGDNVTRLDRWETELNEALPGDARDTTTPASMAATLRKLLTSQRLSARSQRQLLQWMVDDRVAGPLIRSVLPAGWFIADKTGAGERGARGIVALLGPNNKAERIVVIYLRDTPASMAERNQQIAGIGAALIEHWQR
T5 sequence (P13661 26-276): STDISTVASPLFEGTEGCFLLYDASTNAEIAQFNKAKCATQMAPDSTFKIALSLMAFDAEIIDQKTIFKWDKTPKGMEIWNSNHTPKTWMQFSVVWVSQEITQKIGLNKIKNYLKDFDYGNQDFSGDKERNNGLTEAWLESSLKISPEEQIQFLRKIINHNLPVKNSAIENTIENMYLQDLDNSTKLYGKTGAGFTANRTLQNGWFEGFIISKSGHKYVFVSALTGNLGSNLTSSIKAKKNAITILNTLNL
T9 sequence (Q51574 22-275): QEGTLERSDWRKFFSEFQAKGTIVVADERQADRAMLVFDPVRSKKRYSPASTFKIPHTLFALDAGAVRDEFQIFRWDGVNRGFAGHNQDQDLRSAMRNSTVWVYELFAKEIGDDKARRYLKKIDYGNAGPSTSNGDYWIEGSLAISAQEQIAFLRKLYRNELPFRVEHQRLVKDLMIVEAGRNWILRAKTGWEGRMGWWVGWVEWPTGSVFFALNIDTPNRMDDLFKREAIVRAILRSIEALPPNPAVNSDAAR
T3 sequence (P62593 24-286 limits assumed): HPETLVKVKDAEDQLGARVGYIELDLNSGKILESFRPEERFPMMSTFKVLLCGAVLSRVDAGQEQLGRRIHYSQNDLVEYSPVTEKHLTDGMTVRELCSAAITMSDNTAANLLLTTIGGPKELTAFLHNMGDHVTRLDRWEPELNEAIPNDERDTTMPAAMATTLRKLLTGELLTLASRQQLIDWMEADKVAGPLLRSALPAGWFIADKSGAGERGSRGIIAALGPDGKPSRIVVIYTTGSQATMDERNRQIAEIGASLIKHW
T8 sequence (P24735 27-397): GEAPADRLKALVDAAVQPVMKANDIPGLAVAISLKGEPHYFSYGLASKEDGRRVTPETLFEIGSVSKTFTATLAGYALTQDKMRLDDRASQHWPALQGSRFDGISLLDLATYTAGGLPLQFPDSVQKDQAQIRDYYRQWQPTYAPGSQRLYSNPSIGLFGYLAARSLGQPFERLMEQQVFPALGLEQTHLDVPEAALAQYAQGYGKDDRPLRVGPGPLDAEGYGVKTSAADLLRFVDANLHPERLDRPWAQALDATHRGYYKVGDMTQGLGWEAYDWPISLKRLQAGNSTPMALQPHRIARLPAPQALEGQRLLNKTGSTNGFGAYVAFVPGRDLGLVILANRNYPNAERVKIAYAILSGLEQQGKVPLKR

Turning to `CNC(=O)CON=C1C[C@@H](C(=O)OC)N2C[C@@H]1N(OS(=O)(=O)[O-])C2=O.[Na+]` (mixture of isomers) [Example 1, sodium [(2S,5S)-2-methoxycarbonyl-4-[2-(methylamino)-2-oxo-ethoxy]imino-7-oxo-1,6-diazabicyclo[3.2.1]octan-6-yl] sulfate], the MIC in the experiment with P. aeruginosa CIP105250 [1], in the experiment with K. pneumoniae 6299 [2], in the experiment with K. pneumoniae BAA-1898 [3], in the experiment with E. coli 131119, in the experiment on E. coli RGN238 and with E. coli 190317 [5] was over 32 µg/mL in each case. Further, the MIC in the experiment with P. aeruginosa CIP107051 [6] and in the experiment with E. cloacae P99 [7] was over 32 µg/mL each time. Besides, the “MIC, combination of CAZ and compounds of the invention at 4 μg/mL” value is 4 µg/mL in the experiment with E. coli 190317 [4]; 64 µg/mL in the experiment with E. cloacae P99 [8]; 64 µg/mL with P. aeruginosa CIP105250 [9]; 32 µg/mL in the experiment with K. pneumoniae 6299 [10]; 64 µg/mL in the experiment with P. aeruginosa CIP107051 [11]; 128 µg/mL in the experiment on K. pneumoniae BAA-1898 [12]. Moreover, the IC50 (commonly the concentration that inhibits the measured activity by half) was found to be 1.3 nM on SHV-1; 5.4 nM at CTX-M-15; 3.2 nM on TEM-1; 4.1 nM against OXA-11; 80 nM on OXA-1; 0.51 nM against OXA-48. The IC50 against KPC-2 stood at 7.8 nM; on AmpC (PAE) it was 37 nM; against OXA-15 it was 0.65 nM; at AmpC (P99), 4.1 nM.
Turning to `NC(=O)CON=C1C[C@@H](C(N)=O)N2C[C@@H]1N(OS(=O)(=O)[O-])C2=O.[Na+]` (mixture of isomers) [Example 3, sodium [(2S, 5S)-4-(2-amino-2-oxo-ethoxy)imino-2-carbamoyl-7-oxo-1,6-diazabicyclo[3.2.1]octan-6-yl] sulfate], the MIC in the experiment with P. aeruginosa CIP105250 [1], in the experiment with K. pneumoniae 6299 [2], with K. pneumoniae BAA-1898 [3], in the experiment on E. coli 131119, in the experiment on E. coli RGN238 and in the experiment with E. coli 190317 [5] was over 32 µg/mL each time. For the same compound, the MIC in the experiment on P. aeruginosa CIP107051 [6] and in the experiment on E. cloacae P99 [7] was over 32 µg/mL throughout. In addition, the “MIC, combination of CAZ and compounds of the invention at 4 μg/mL” value with E. coli 190317 [4] was at most 0.125 µg/mL; with E. cloacae P99 [8], 32 µg/mL; in the experiment with P. aeruginosa CIP105250 [9] it was 32 µg/mL; with K. pneumoniae 6299 [10], 4 µg/mL; in the experiment on P. aeruginosa CIP107051 [11], 32 µg/mL; in the experiment on K. pneumoniae BAA-1898 [12], 64 µg/mL. Further, the IC50 at SHV-1 was 4.6 nM; against CTX-M-15 it was 2 nM; at TEM-1, 3 nM; against OXA-11, 48 nM; against OXA-1, 17 nM; against OXA-48, 5.7 nM. For the same compound, the IC50 against KPC-2 came to 33 nM; at AmpC (PAE), 220 nM; against OXA-15 it was 1.6 nM; against AmpC (P99), 7.4 nM.
